≈ marks a conversion by molar mass, not a printed value. Blank lines part the entries; values can stand above or below the compound they belong to. Where a SMILES comes first, the peptide text is derived from it.
How the values were obtained:
[1] = system: Staphylococcus aureus; assay: Antibacterial activity against Staphylococcus aureus ATCC 25923 incubated for 18 to 24 hrs by broth microdilution method; format: functional
[2] = system: Staphylococcus aureus; assay: Antibacterial activity against Staphylococcus aureus ATCC 29213 incubated for 18 to 24 hrs by broth microdilution method; format: functional
[3] = system: Salmonella typhimurium; assay: Antibacterial activity against Salmonella enterica serovar typhimurium C77-31 incubated for 18 to 24 hrs by broth microdilution method; format: functional, Salmonella enterica subsp. enterica serovar Typhimurium
[4] = system: Escherichia coli; assay: Antibacterial activity against Escherichia coli UB1005 incubated for 18 to 24 hrs by broth microdilution method; format: functional
[5] = system: Escherichia coli; assay: Antibacterial activity against Escherichia coli ATCC 25922 incubated for 18 to 24 hrs by broth microdilution method; format: functional
[6] = system: Staphylococcus epidermidis; assay: Antibacterial activity against Staphylococcus epidermidis ATCC 12228 incubated for 18 to 24 hrs by broth microdilution method; format: functional
[7] = system: Erythrocyte; assay: Haemolytic activity in human erythrocytes assessed as lowest concentration causing 5% hemolysis after 1 hr; format: ADME, cell-based
[8] = Therapeutic index, ratio of MHC for human RBC to geometric mean of peptide MIC for Escherichia coli ATCC 25922; format: toxicity; conditions: pooled result: one value given for 6 cell lines, strains, targets or settings, read-out: TI
[9] = (§1) Cytotoxicity against mouse RAW264.7 cells assessed as cell survival at <= 32 uM after 24 hrs by MTT assay relative to control; format: cell-based; conditions: RAW264.7 cells, up to 32 µM, read-out: Activity
[10] = system: Staphylococcus aureus; assay: Antibacterial activity against Staphylococcus aureus ATCC 29213 incubated for 2 hrs in presence of sodium phosphate buffer at pH 2 by broth microdilution method; format: functional; conditions: ATCC 29213, 2 h
[11] = system: Escherichia coli; assay: Antibacterial activity against Escherichia coli ATCC 25922 using preheated compound at 100 degreeC for 1 hr by broth microdilution method; format: functional; conditions: ATCC 25922, 1 h
[12] = system: Escherichia coli; assay: Antibacterial activity against Escherichia coli ATCC 25922 in presence of NaCl by broth microdilution method; format: functional
[13] = system: Escherichia coli; assay: Antibacterial activity against Escherichia coli ATCC 25922 in presence of KCl by broth microdilution method; format: functional
[14] = system: Escherichia coli; assay: Antibacterial activity against Escherichia coli ATCC 25922 in presence of NH4Cl by broth microdilution method; format: functional
[15] = system: Escherichia coli; assay: Antibacterial activity against Escherichia coli ATCC 25922 in presence of MgCl2 by broth microdilution method; format: functional
[16] = system: Escherichia coli; assay: Antibacterial activity against Escherichia coli ATCC 25922 in presence of ZnCl2 by broth microdilution method; format: functional
[17] = system: Escherichia coli; assay: Antibacterial activity against Escherichia coli ATCC 25922 in presence of CaCl2 by broth microdilution method; format: functional
[18] = system: Escherichia coli; assay: Antibacterial activity against Escherichia coli ATCC 25922 in presence of FeCl3 by broth microdilution method; format: functional
[19] = system: Escherichia coli; assay: Antibacterial activity against Escherichia coli ATCC 25922 in presence of 12.5% serum by broth microdilution method; format: functional
[20] = system: Escherichia coli; assay: Antibacterial activity against Escherichia coli ATCC 25922 in presence of 25% serum by broth microdilution method; format: functional
[21] = system: Escherichia coli; assay: Antibacterial activity against Escherichia coli ATCC 25922 in presence of 50% serum by broth microdilution method; format: functional
[22] = system: Escherichia coli; assay: Antibacterial activity against Escherichia coli ATCC 25922 incubated for 2 hrs in presence of sodium phosphate buffer at pH 2 by broth microdilution method; format: functional; conditions: ATCC 25922, 2 h
[23] = system: Escherichia coli; assay: Antibacterial activity against Escherichia coli ATCC 25922 incubated for 2 hrs in presence of sodium phosphate buffer at pH 4 by broth microdilution method; format: functional; conditions: ATCC 25922, 2 h
[24] = system: Escherichia coli; assay: Antibacterial activity against Escherichia coli ATCC 25922 incubated for 2 hrs in presence of sodium phosphate buffer at pH 10 by broth microdilution method; format: functional; conditions: ATCC 25922, 2 h
[25] = system: Escherichia coli; assay: Antibacterial activity against Escherichia coli ATCC 25922 incubated for 2 hrs in presence of sodium phosphate buffer at pH 12 by broth microdilution method; format: functional; conditions: ATCC 25922, 2 h
[26] = system: Escherichia coli; assay: Antibacterial activity against Escherichia coli ATCC 25922 in presence of H202 by broth microdilution method; format: functional
[27] = system: Escherichia coli; assay: Antibacterial activity against Escherichia coli ATCC 25922 in presence of NaBH4 by broth microdilution method; format: functional
[28] = system: Staphylococcus aureus; assay: Antibacterial activity against Staphylococcus aureus ATCC 29213 using preheated compound at 100 degreeC for 1 hr by broth microdilution method; format: functional; conditions: ATCC 29213, 1 h
[29] = system: Staphylococcus aureus; assay: Antibacterial activity against Staphylococcus aureus ATCC 29213 in presence of NaCl by broth microdilution method; format: functional
[30] = system: Staphylococcus aureus; assay: Antibacterial activity against Staphylococcus aureus ATCC 29213 in presence of KCl by broth microdilution method; format: functional
[31] = system: Staphylococcus aureus; assay: Antibacterial activity against Staphylococcus aureus ATCC 29213 in presence of NH4Cl by broth microdilution method; format: functional
[32] = system: Staphylococcus aureus; assay: Antibacterial activity against Staphylococcus aureus ATCC 29213 in presence of MgCl2 by broth microdilution method; format: functional
[33] = system: Staphylococcus aureus; assay: Antibacterial activity against Staphylococcus aureus ATCC 29213 in presence of ZnCl2 by broth microdilution method; format: functional
[34] = system: Staphylococcus aureus; assay: Antibacterial activity against Staphylococcus aureus ATCC 29213 in presence of CaCl2 by broth microdilution method; format: functional
[35] = system: Staphylococcus aureus; assay: Antibacterial activity against Staphylococcus aureus ATCC 29213 in presence of FeCl3 by broth microdilution method; format: functional
[36] = system: Staphylococcus aureus; assay: Antibacterial activity against Staphylococcus aureus ATCC 29213 in presence of 12.5% serum by broth microdilution method; format: functional
[37] = system: Staphylococcus aureus; assay: Antibacterial activity against Staphylococcus aureus ATCC 29213 in presence of 25% serum by broth microdilution method; format: functional
[38] = system: Staphylococcus aureus; assay: Antibacterial activity against Staphylococcus aureus ATCC 29213 in presence of 50% serum by broth microdilution method; format: functional
[39] = system: Staphylococcus aureus; assay: Antibacterial activity against Staphylococcus aureus ATCC 29213 incubated for 2 hrs in presence of sodium phosphate buffer at pH 4 by broth microdilution method; format: functional; conditions: ATCC 29213, 2 h
[40] = system: Staphylococcus aureus; assay: Antibacterial activity against Staphylococcus aureus ATCC 29213 incubated for 2 hrs in presence of sodium phosphate buffer at pH 10 by broth microdilution method; format: functional; conditions: ATCC 29213, 2 h
[41] = system: Staphylococcus aureus; assay: Antibacterial activity against Staphylococcus aureus ATCC 29213 incubated for 2 hrs in presence of sodium phosphate buffer at pH 12 by broth microdilution method; format: functional; conditions: ATCC 29213, 2 h
[42] = system: Staphylococcus aureus; assay: Antibacterial activity against Staphylococcus aureus ATCC 29213 in presence of H202 by broth microdilution method; format: functional
[43] = system: Staphylococcus aureus; assay: Antibacterial activity against Staphylococcus aureus ATCC 29213 in presence of NaBH4 by broth microdilution method; format: functional
[44] = system: Escherichia coli; assay: Antibacterial activity against Escherichia coli 20411 clinical isolate incubated for 18 to 24 hrs by broth microdilution method; format: functional
[45] = system: Acinetobacter baumannii; assay: Antibacterial activity against Acinetobacter baumannii AB1901 clinical isolate incubated for 18 to 24 hrs by broth microdilution method; format: functional
[46] = system: Acinetobacter baumannii; assay: Antibacterial activity against Acinetobacter baumannii AB1902 clinical isolate incubated for 18 to 24 hrs by broth microdilution method; format: functional
[47] = system: Pseudomonas aeruginosa; assay: Antibacterial activity against Pseudomonas aeruginosa 25349 clinical isolate incubated for 18 to 24 hrs by broth microdilution method; format: functional
[48] = system: Staphylococcus aureus; assay: Antibacterial activity against Staphylococcus aureus 11011 incubated for 18 to 24 hrs by broth microdilution method; format: functional
[49] = system: Escherichia coli; assay: Antibacterial activity against ciprofloxacin-resistant Escherichia coli ATCC 25922 incubated for 18 to 24 hrs; format: functional
[50] = system: RAW264.7; assay: as §1; format: cell-based; conditions: raw264.7, 24 h

MIC [1]: > 128 µM | MIC [2]: > 128 µM | MIC [3]: > 128 µM | MIC [4]: 64 µM (≈ 105 µg/mL) | MIC [5]: > 128 µM | MIC [6]: > 128 µM | MIC [10]: > 128 µM | MIC [11]: > 128 µM | MIC [12]: > 128 µM | MIC [13]: > 128 µM | MIC [14]: > 128 µM | MIC [15]: > 128 µM | MIC [16]: > 128 µM | MIC [17]: > 128 µM | MIC [18]: > 128 µM | MIC [19]: > 128 µM | MIC [20]: > 128 µM | MIC [21]: > 128 µM | MIC [22]: > 128 µM | MIC [23]: > 128 µM | MIC [24]: > 128 µM | MIC [25]: > 128 µM | MIC [26]: > 128 µM | MIC [27]: > 128 µM | MIC [28]: > 128 µM | MIC [29]: > 128 µM | MIC [30]: > 128 µM | MIC [31]: > 128 µM | MIC [32]: > 128 µM | MIC [33]: > 128 µM | MIC [34]: > 128 µM | MIC [35]: > 128 µM | MIC [36]: > 128 µM | MIC [37]: > 128 µM | MIC [38]: > 128 µM | MIC [39]: > 128 µM | MIC [40]: > 128 µM | MIC [41]: > 128 µM | MIC [42]: > 128 µM | MIC [43]: > 128 µM
Compound: CC(C)C[C@H](NC(=O)[C@H](CCCNC(=N)N)NC(=O)[C@H](CCCCN)NC(=O)[C@H](CCCNC(=N)N)NC(=O)[C@@H](NC(=O)[C@H](CCCCN)NC(=O)[C@H](CCCCN)NC(=O)[C@H](CCCNC(=N)N)NC(=O)[C@H](CC(C)C)NC(=O)[C@H](CCCNC(=N)N)NC(=O)[C@@H](N)CCCNC(=N)N)[C@@H](C)O)C(=O)N[C@@H](CCCCN)C(N)=O (H-RRLRKKTRKRLK-NH2)
MHC [7]: > 128 µM | selectivity ratio [8]: 1.26 | viability at 24 h [9]: ≥ 70%

Compound: CCn1cc(C(=O)O)c(=O)c2cc(F)c(N3CCNCC3)cc21 [NORFLOXACIN]
MIC [1]: 2 µM (≈ 0.639 µg/mL) | MIC [2]: 1 µM (≈ 0.319 µg/mL) | MIC [3]: 0.25 µM (≈ 0.0798 µg/mL) | MIC [4]: 4 µM (≈ 1.28 µg/mL) | MIC [5]: 0.125 µM (≈ 0.0399 µg/mL) | MIC [6]: 1 µM (≈ 0.319 µg/mL) | MIC [44]: 0.0625 µM (≈ 0.02 µg/mL) | MIC [45]: > 128 µM | MIC [46]: > 128 µM | MIC [47]: 2 µM (≈ 0.639 µg/mL) | MIC [48]: 2 µM (≈ 0.639 µg/mL) | MIC [49]: 1 µM (≈ 0.319 µg/mL)

MIC [1]: 16 µM (≈ 28.1 µg/mL) | MIC [2]: 8 µM (≈ 14 µg/mL) | MIC [3]: 16 µM (≈ 28.1 µg/mL) | MIC [4]: 4 µM (≈ 7.02 µg/mL) | MIC [5]: 4 µM (≈ 7.02 µg/mL) | MIC [6]: 8 µM (≈ 14 µg/mL)
Compound: CC(C)C[C@H](NC(=O)[C@H](Cc1c[nH]c2ccccc12)NC(=O)[C@H](CCCCN)NC(=O)[C@H](CCCNC(=N)N)NC(=O)[C@@H](NC(=O)[C@H](Cc1c[nH]c2ccccc12)NC(=O)[C@H](CCCCN)NC(=O)[C@H](CCCNC(=N)N)NC(=O)[C@H](CC(C)C)NC(=O)[C@H](Cc1c[nH]c2ccccc12)NC(=O)[C@@H](N)CCCNC(=N)N)[C@@H](C)O)C(=O)N[C@@H](CCCCN)C(N)=O (H-RWLRKWTRKWLK-NH2)
MHC [7]: > 128 µM | selectivity ratio [8]: 32 | Activity [50]: Non-Toxic
